Read-outs that look alike come from different tables or passages of the source.
How the values were obtained:
MMH/GH5 cells = test: cellular survival of MMH/GH5, Trypan Blue exclusion; assay type: cell-based, mice; set-up: % cellular survival, MMHGH/5 1 + 24 h / % cellular survival, MMHGH/5 5 + 24 / % vitality of the cells, MMH/GH 1 + 24 h / % vitality of the cells, MMH/GH 5 + 24 h: unit of the concentration uncertain; conditions: for % vitality of the cells, MMH/GH 1 + 24 h / % cellular survival, MMHGH/5 1 + 24 h: 1 h treatment + 24 h normal medium; for % vitality of the cells, MMH/GH 5 + 24 h / % cellular survival, MMHGH/5 5 + 24: 5 h treatment + 24 h normal medium
Text: (§1) This different behaviour is explained by the greater sensitivity to the toxicant of the PHGH with respect to the MMH/GH5 as shown by analysis of the cellular vitality performed with the Trypan Blue method (FIG. 1, graph B). […] Therefore the greater resistance of the cells MMH/GH/5 to the toxicants constitutes another evident advantage as it permits the exclusion of false negatives in which the non-release of hGH, due to cellular death, is interpreted as non-toxicity of the compound. When the supernatant is collected after 5 hours of treatment followed by 24 hours of culture with normal medium (FIG. 1 graph C) the PHGHs respond, at the lowest concentrations of the two toxicants, with high levels of secretion of hGH and, at the highest concentrations, with low levels of secretion of hGH (lower cellular survival, graph D).
(§2) In table 3 the cellular survival percentage was determined with the Trypan Blue exclusion method. […]
(§3) For treatment, the two types of cells were treated with different concentrations of the compounds for 1 or 5 hours and then with normal medium for a further 24 hours. The effects of the treatment were assessed as described previously for the inorganic toxicants.

MMH/GH5 cells (Clone 5) = test system: MMH/GH5 cells (Clone 5); set-up: hGH secreted, MMHGH/5 1 + 24 h / hGH secreted, MMHGH/5 5 + 24 / hGH secreted, MMHGH/5 1 h / hGH secreted, MMHGH/5 5 h: dose or concentration left out as unconfirmed
[1] = test system: primary hepatocytes (PHGH); test: cellular survival of PHGH, Trypan Blue exclusion; assay type: cell-based, mice; set-up: % cellular survival, PHGH 1 + 24 h / % cellular survival, PHGH 5 + 24 / % vitality of the cells, PHGH 1 + 24 h / % vitality of the cells, PHGH 5 + 24 h: unit of the concentration uncertain; conditions: for % vitality of the cells, PHGH 1 + 24 h / % cellular survival, PHGH 1 + 24 h: 1 h treatment + 24 h normal medium; for % vitality of the cells, PHGH 5 + 24 h / % cellular survival, PHGH 5 + 24: 5 h treatment + 24 h normal medium
Text: as §1, §2, §3

[2] = test system: single transgenic HPS70/hGH primary hepatocytes (PHGH); test: toxicity test, hGH secretion by primary transgenic hepatocytes (PHGH); assay type: cell-based, mice; set-up: hGH secreted, PHGH 1 h / hGH secreted, PHGH 5 h / hGH secreted, PHGH 1 + 24 h / hGH secreted, PHGH 5 + 24: unit of the concentration uncertain
Text: On the basis of the results illustrated, for the further analyses, clone no. […] The response to the toxic stress of the clone MMH/GH5 was then compared with the one obtained in single transgenic HPS70/hGH primary hepatocytes (PHGH). A representative sample of the cell line derived from said clone MMH/GH5 was deposited in accordance with and for the purposes of the Treaty of Budapest on the international recognition of deposit of micro-organisms for the purposes of the patents procedure with the AID “Centro di Biotecnologie Avanzate (CBA), Interlab Cell Line Collection (ICLC)” Servizio Biotecnologie, Largo R. Benzi, 10, 16132 Genova, Italy, on Jul. 30, 2002, where it was given identification number PD 02007.
as §2, §3

[3] = 50 (unit uncertain), Trypan Blue (Table 4)
[4] = 100 (unit uncertain), Trypan Blue
[5] = 25 (unit uncertain), Trypan Blue
[6] = 50 (unit uncertain), Trypan Blue (Table 3)
[7] = 25, 1 h treatment + 24 h normal medium
[8] = 25, 5 h treatment + 24 h normal medium
[9] = 50, 1 h treatment + 24 h normal medium (Table 3)
[10] = 50, 5 h treatment + 24 h normal medium (Table 3)
[11] = 25 (unit uncertain), 1 h treatment
[12] = 25 (unit uncertain), 1 h treatment + 24 h normal medium
[13] = 25 (unit uncertain), 5 h treatment
[14] = 25 (unit uncertain), 5 h treatment + 24 h normal medium
[15] = 50 (unit uncertain), 1 h treatment (Table 3)
[16] = 50 (unit uncertain), 1 h treatment + 24 h normal medium (Table 3)
[17] = 50 (unit uncertain), 5 h treatment (Table 3)
[18] = 50 (unit uncertain), 5 h treatment + 24 h normal medium (Table 3)

SMILES | % vitality of the cells, MMH/GH 1 + 24 h (MMH/GH5 cells; [3]) | % vitality of the cells, MMH/GH 5 + 24 h (MMH/GH5 cells; [3]) | % vitality of the cells, MMH/GH 1 + 24 h (MMH/GH5 cells; [4]) | % vitality of the cells, MMH/GH 5 + 24 h (MMH/GH5 cells; [4]) | % vitality of the cells, PHGH 1 + 24 h [1, 3] | % vitality of the cells, PHGH 5 + 24 h [1, 3] | % vitality of the cells, PHGH 1 + 24 h [1, 4] | % vitality of the cells, PHGH 5 + 24 h [1, 4] | % cellular survival, MMHGH/5 1 + 24 h (MMH/GH5 cells; [5]) | % cellular survival, MMHGH/5 5 + 24 (MMH/GH5 cells; [5]) | % cellular survival, MMHGH/5 1 + 24 h (MMH/GH5 cells; [6]) | % cellular survival, MMHGH/5 5 + 24 (MMH/GH5 cells; [6]) | hGH secreted, MMHGH/5 1 h (MMH/GH5 cells (Clone 5); 25, 1 h treatment) | hGH secreted, MMHGH/5 1 + 24 h (MMH/GH5 cells (Clone 5); [7]) | hGH secreted, MMHGH/5 5 h (MMH/GH5 cells (Clone 5); 25, 5 h treatment) | hGH secreted, MMHGH/5 5 + 24 (MMH/GH5 cells (Clone 5); [8]) | hGH secreted, MMHGH/5 1 h (MMH/GH5 cells (Clone 5); 50, 1 h treatment (Table 3)) | hGH secreted, MMHGH/5 1 + 24 h (MMH/GH5 cells (Clone 5); [9]) | hGH secreted, MMHGH/5 5 h (MMH/GH5 cells (Clone 5); 50, 5 h treatment (Table 3)) | hGH secreted, MMHGH/5 5 + 24 (MMH/GH5 cells (Clone 5); [10]) | also measured
O=[As][O-].[Na+] [NaAsO2] |  |  |  |  |  |  |  |  |  |  |  |  |  |  |  |  |  |  |  |  | hGH secreted, 5 + 24 h (MMH/GH cells, Clone 4): 0; hGH secreted, 5 h (MMH/GH cells, Clone 4): 0; hGH secreted, 5 + 24 h (MMH/GH cells, Clone 11): 0
Oc1c(Cl)c(Cl)c(Cl)c(Cl)c1Cl [PCP, PentaChloroPhenol] | 90% | 70% | 80% | 50% | 10% | 10% | 0% | 0% |  |  |  |  |  |  |  |  |  |  |  |  | induction of a response in MMH/GH5 (MMH/GH5 cells (Clone 5); words, Table 4): requires a prolonged exposure time to induce a response; toxicity for the PHGHs ([1]; words, Table 4): toxic
CCCCC[C@H](O)/C=C/[C@H]1C=CC(=O)[C@@H]1CCCCCCC(=O)O [PGA1] |  |  |  |  |  |  |  |  | 90% | 90% | 90% | 90% | 10 pg hGH/10^6 cells | 0 pg hGH/10^6 cells | 27 pg hGH/10^6 cells | 2 pg hGH/10^6 cells | 94 pg hGH/10^6 cells | 116 pg hGH/10^6 cells | 47 pg hGH/10^6 cells | 9 pg hGH/10^6 cells | hGH secreted, PHGH 1 h [2, 11]: 9 pg hGH/10^6 cells; hGH secreted, PHGH 1 + 24 h [2, 12]: 13 pg hGH/10^6 cells; hGH secreted, PHGH 5 h [2, 13]: 16 pg hGH/10^6 cells; hGH secreted, PHGH 5 + 24 [2, 14]: 69 pg hGH/10^6 cells; hGH secreted, PHGH 1 h [2, 15]: 7 pg hGH/10^6 cells; hGH secreted, PHGH 1 + 24 h [2, 16]: 4 pg hGH/10^6 cells; hGH secreted, PHGH 5 h [2, 17]: 17 pg hGH/10^6 cells; hGH secreted, PHGH 5 + 24 [2, 18]: 522 pg hGH/10^6 cells; % cellular survival, PHGH 1 + 24 h [1, 5]: 95%; % cellular survival, PHGH 5 + 24 [1, 5]: 90%; % cellular survival, PHGH 1 + 24 h [1, 6]: 90%; % cellular survival, PHGH 5 + 24 [1, 6]: 70%
CCCCC[C@H](O)/C=C/[C@H]1C=CC(=O)[C@@H]1C/C=C\CCCC(=O)O [PGA2] |  |  |  |  |  |  |  |  | 90% | 90% | 90% | 90% | 1 pg hGH/10^6 cells | 2 pg hGH/10^6 cells | 53 pg hGH/10^6 cells | 0 pg hGH/10^6 cells | 8 pg hGH/10^6 cells | 92 pg hGH/10^6 cells | 107 pg hGH/10^6 cells | 0 pg hGH/10^6 cells | hGH secreted, PHGH 1 h [2, 11]: 1 pg hGH/10^6 cells; hGH secreted, PHGH 1 + 24 h [2, 12]: 0 pg hGH/10^6 cells; hGH secreted, PHGH 5 h [2, 13]: 56 pg hGH/10^6 cells; hGH secreted, PHGH 5 + 24 [2, 14]: 10 pg hGH/10^6 cells; hGH secreted, PHGH 1 h [2, 15]: 27 pg hGH/10^6 cells; hGH secreted, PHGH 1 + 24 h [2, 16]: 26 pg hGH/10^6 cells; hGH secreted, PHGH 5 h [2, 17]: 95 pg hGH/10^6 cells; hGH secreted, PHGH 5 + 24 [2, 18]: 37 pg hGH/10^6 cells; % cellular survival, PHGH 1 + 24 h [1, 5]: 90%; % cellular survival, PHGH 5 + 24 [1, 5]: 90%; % cellular survival, PHGH 1 + 24 h [1, 6]: 90%; % cellular survival, PHGH 5 + 24 [1, 6]: 90%
Oc1c(Cl)c(Cl)c(O)c(Cl)c1Cl [TCHQ, TetraChloroHydroQuinone] | 50% | 30% | 10% | 0% | 50% | 60% | 0% | 0% |  |  |  |  |  |  |  |  |  |  |  |  | response in MMH/GH5 (MMH/GH5 cells (Clone 5); compared with PCP, words): stronger response; response in PHGH ([2]; compared with PCP, words): stronger response
